Source: US10336762B2 (priority 2017, dated 2019)
Where two headings read alike, the source gives them in different places.

Columns and labels:
[1] = tested on: TNFα; assay: cells; assay type: cell-based, human; details: LPS-stimulated human monocytes, read-out: EC50 TNF
[2] = target: IRAK4 enzyme (Homo sapiens (Human), UniProt Q9NWZ3); assay: biochemical; assay type: biochemical; details: IRAK4 enzyme, 500 μM ATP
[3] = Homo sapiens, Monocyte, TNFα content
[4] = Homo sapiens, Monocyte, TNFα by TR-FRET

Sequence of IRAK4 enzyme (Q9NWZ3 whole entry): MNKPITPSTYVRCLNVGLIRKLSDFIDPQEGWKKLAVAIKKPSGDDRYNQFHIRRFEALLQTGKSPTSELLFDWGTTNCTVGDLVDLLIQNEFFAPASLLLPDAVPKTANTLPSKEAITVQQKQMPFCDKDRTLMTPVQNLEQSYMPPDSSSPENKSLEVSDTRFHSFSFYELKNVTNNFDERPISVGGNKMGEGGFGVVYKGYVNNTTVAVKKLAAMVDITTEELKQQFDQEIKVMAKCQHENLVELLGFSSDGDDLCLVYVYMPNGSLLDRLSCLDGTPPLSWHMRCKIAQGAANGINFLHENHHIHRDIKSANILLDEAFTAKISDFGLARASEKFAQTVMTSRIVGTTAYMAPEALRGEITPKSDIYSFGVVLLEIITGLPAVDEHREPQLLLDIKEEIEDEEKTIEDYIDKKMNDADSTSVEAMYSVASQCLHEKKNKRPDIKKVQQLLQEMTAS

| Structure (SMILES) | EC50 [1, 3] | IC50 ([2]; TR-FRET) | IC50 ([2]; TR-FRET (HTRF)) | EC50 ([1]; TNFα by TR-FRET) | EC50 [1, 4] |
| --- | --- | --- | --- | --- | --- |
| CO[C@@H]1CCC[C@H](Nc2cc(-c3ccc4cc(C#N)cnn34)ncc2C(=O)NC[C@@H](F)C(C)(C)O)C1 [Example 62, 6-(3-cyanopyrrolo[1,2-b]pyridazin-7-yl)-N-((R)-2-fluoro-3-hydroxy-3-methylbutyl)-4-(((1S,3R)-3-methoxycyclohexyl)amino) nicotinamide] | 83 nM | < 1 nM |  |  |  |
| CNC(=O)c1csc(Nc2cc(-c3ccc4cc(C#N)cnn34)ncc2C(=O)NC[C@@H](F)C(C)(C)O)n1 [Example 338, (R)-2-((2-(3-cyanopyrrolo[1,2-b]pyridazin-7-yl)-5-((2-fluoro-3-hydroxy-3-methylbutyl)carbamoyl)pyridin-4-yl)amino)-N-methylthiazole-4-carboxamide] | 304 nM | 3 nM |  |  |  |
| CN(C)C(=O)N[C@H]1CC[C@H](Nc2cc(-c3ccc4cc(C#N)cnn34)ncc2C(=O)NC[C@@H](F)C(C)(C)O)CC1 [Example 286, 6-(3-cyanopyrrolo[1,2-b]pyridazin-7-yl)-4-(((1r,4R)-4-(3,3-dimethylureido)cyclohexyl)amino)-N-((R)-2-fluoro-3-hydroxy-3-methylbutyl)nicotinamide] | 41 nM | 1 nM |  |  |  |
| CC(C)(O)[C@H](F)CNC(=O)c1cnc(-c2ccc3cc(C#N)cnn23)cc1N[C@]1(C)C[C@H](O)C1 [Example 433, 6-(3-cyanopyrrolo[1,2-b]pyridazin-7-yl)-N-((R)-2-fluoro-3-hydroxy-3-methylbutyl)-4-(((1s,3S)-3-hydroxy-1-methylcyclobutyl)amino) nicotinamide] | 47 nM |  | < 1 nM |  |  |
| N#Cc1cnn2c(-c3cc(NC45CCC(O)(CC4)CC5)c(C(=O)NCC(=O)N4CCCCC4)cn3)ccc2c1 [Example 792, 6-(3-cyanopyrrolo[1,2-b]pyridazin-7-yl)-4-((4-hydroxybicyclo[2.2.2]octan-1-yl)amino)-N-(2-oxo-2-(piperidin-1-yl)ethyl)nicotinamide] | 86 nM |  | 2 nM |  |  |
| CC(C)Nc1cc(-c2ccc3cc(C#N)cnn23)ncc1C(=O)NCCCS(C)(=O)=O [Example 85, 6-(3-cyanopyrrolo[1,2-b]pyridazin-7-yl)-4-(isopropyl-amino)-N-(3-(methylsulfonyl)propyl) nicotinamide] | 67 nM | 1 nM |  |  |  |
| CC(C)(O)[C@H](F)CNC(=O)c1cnc(-c2ccc3cc(C#N)cnn23)cc1NC1CC2(CCN2)C1 (stereo partly drawn) [Example 911, 4-(((4R,6s)-1-azaspiro[3.3]heptan-6-yl)amino)-6-(3-cyanopyrrolo[1,2-b]pyridazin-7-yl)-N-((R)-2-fluoro-3-hydroxy-3-methylbutyl) nicotinamide] |  | 7 nM |  | 318 nM |  |
| CC(C)(O)[C@H](F)CNC(=O)c1cnc(-c2ccc3cc(C#N)cnn23)cc1N[C@@H]1CC[C@@H](c2cnco2)OC1 [Example 639, 6-(3-cyanopyrrolo[1,2-b]pyridazin-7-yl)-N-((R)-2-fluoro-3-hydroxy-3-methylbutyl)-4-(((3R,6S)-6-(oxazol-5-yl)tetrahydro-2H-pyran-3-yl)amino)nicotinamide] | 43 nM |  | 1 nM |  |  |
| CC(C)(O)[C@H](F)CNC(=O)c1cnc(-c2ccc3cc(C#N)cnn23)cc1Nc1ccc(C(N)=O)cc1 [Example 381] | 18 nM | < 1 nM |  |  |  |
| CCn1cnc(Nc2cc(-c3ccc4cc(C#N)cnn34)ncc2C(=O)NC[C@@H](F)C(C)(C)O)n1 [Example 128, (R)-6-(3-cyanopyrrolo[1,2-b]pyridazin-7-yl)-4-((1-ethyl-1H-1,2,4-triazol-3-yl)amino)-N-(2-fluoro-3-hydroxy-3-methylbutyl)nicotinamide] | 141 nM | 1 nM |  |  |  |
| CC(C)(C)OC(=O)CNC(=O)c1cnc(-c2ccc3cc(C#N)cnn23)cc1NC12CCC(O)(CC1)CC2 [Example 808, tert-butyl (6-(3-cyano-pyrrolo[1,2-b]pyridazin-7-yl)-4-((4-hydroxy-bicyclo[2.2.2]octan-1-yl)amino)nicotinoyl) glycinate] |  | < 1 nM |  |  | 15 nM |
| N#CCNC(=O)c1cnc(-c2ccc3cc(C#N)cnn23)cc1N[C@H]1CC[C@H](N2CCOC2=O)CC1 [Example 391, N-(cyanomethyl)-6-(3-cyanopyrrolo[1,2-b]pyridazin-7-yl)-4-(((1r,4r)-4-(2-oxooxazolidin-3-yl)cyclohexyl)amino) nicotinamide] | 33 nM | < 1 nM |  |  |  |
| CC(C)(O)[C@H](F)CNC(=O)c1cnc(-c2ccc3cc(C#N)cnn23)cc1Nc1nc(C(F)(F)F)cs1 [Example 374, (R)-6-(3-cyanopyrrolo[1,2-b]pyridazin-7-yl)-N-(2-fluoro-3-hydroxy-3-methylbutyl)-4-((4-(trifluoromethyl)thiazol-2-yl)amino)nicotinamide] | 327 nM | 1 nM |  |  |  |
| COC(=O)NC(C)(C)c1ccc(Nc2cc(-c3ccc4cc(C#N)cnn34)ncc2C(=O)NC[C@@H](F)C(C)(C)O)cc1 [Example 214, (R)-methyl(2-(4-((2-(3-cyanopyrrolo[1,2-b]pyridazin-7-yl)-5-((2-fluoro-3-hydroxy-3-methylbutyl)carbamoyl)pyridin-4-yl)amino)phenyl)propan-2-yl)carbamate] | 36 nM | 3 nM |  |  |  |
| N#Cc1cnn2c(-c3cc(Nc4cccnc4)c(C(=O)N[C@H]4CC[C@H](NC(=O)C5CC5)CC4)cn3)ccc2c1 [Example 502, 6-(3-cyanopyrrolo[1,2-b]pyridazin-7-yl)-N-((1r,4r)-4-(cyclopropane-carboxamido)cyclohexyl)-4-(pyridin-3-ylamino) nicotinamide] | 93 nM |  | 1 nM |  |  |
| CCOc1cccc(Nc2cc(-c3ccc4cc(C#N)cnn34)ncc2C(=O)NC[C@@H](F)C(C)(C)O)c1 [Example 836, (R)-6-(3-cyanopyrrolo[1,2-b]pyridazin-7-yl)-4-((3-ethoxyphenyl)amino)-N-(2-fluoro-3-hydroxy-3-methylbutyl)nicotinamide] |  | 2 nM |  |  | 43 nM |
| CC(C)(O)[C@H](F)CNC(=O)c1cnc(-c2ccc3cc(C#N)cnn23)cc1Nc1cncnc1 [Example 145, (R)-6-(3-cyanopyrrolo[1,2-b]pyridazin-7-yl)-N-(2-fluoro-3-hydroxy-3-methylbutyl)-4-(pyrimidin-5-ylamino)nicotinamide] | 70 nM | < 1 nM |  |  |  |
| CN(C)C(=O)OC[C@H]1C[C@H](Nc2cc(-c3ccc4cc(C#N)cnn34)ncc2C(=O)NC[C@@H](F)C(C)(C)O)C1 [Example 734, ((1R,3r)-3-((2-(3-cyanopyrrolo[1,2-b]pyridazin-7-yl)-5-(((R)-2-fluoro-3-hydroxy-3-methylbutyl)carbamoyl)pyridin-4-yl)amino)cyclo-butyl)methyldimethyl-carbamate] | 29 nM |  | < 1 nM |  |  |
| CC(C)(O)[C@H](F)CNC(=O)c1cnc(-c2ccc3cc(C#N)cnn23)cc1N[C@H]1C[C@H](COC(=O)NC2CC2)C1 [Example 735, ((1R,3r)-3-((2-(3-cyano-pyrrolo[1,2-b]pyridazin-7-yl)-5-(((R)-2-fluoro-3-hydroxy-3-methylbutyl)carbamoyl)pyridin-4-yl)amino)cyclobutyl)methyl cyclopropylcarbamate] | 100 nM |  | 1 nM |  |  |
| CC(C)Nc1cc(-c2ccc3cc(C#N)cnn23)ncc1C(=O)Nc1cncc(N)c1 [Example 490] | 220 nM |  | 7 nM |  |  |
| CC(C)(O)[C@H](F)CNC(=O)c1cnc(-c2ccc3cc(C#N)cnn23)cc1NC1CC2(CCN(CC(F)(F)F)C2)C1 (stereo partly drawn) [Example 904, (R)-6-(3-cyanopyrrolo[1,2-b]pyridazin-7-yl)-N-(2-fluoro-3-hydroxy-3-methylbutyl)-4-((6-(2,2,2-trifluoroethyl)-6-aza-spiro[3.4]octan-2-yl)amino)nicotinamide] |  | 1 nM |  |  | 117 nM |
| CC(C)(O)[C@H](F)CNC(=O)c1cnc(-c2ccc3cc(C#N)cnn23)cc1Nc1ccc(Cl)cn1 [Example 586, (R)-4-((5-chloropyridin-2-yl)amino)-6-(3-cyano-pyrrolo[1,2-b]pyridazin-7-yl)-N-(2-fluoro-3-hydroxy-3-methylbutyl) nicotinamide] | 118 nM |  | 1 nM |  |  |
| CC(C)(O)[C@H](F)CNC(=O)c1cnc(-c2ccc3cc(C#N)cnn23)cc1N[C@@H]1CNCCC1(F)F [Example 240, 6-(3-cyanopyrrolo[1,2-b]pyridazin-7-yl)-4-(((R)-4,4-difluoropiperidin-3-yl)amino)-N-((R)-2-fluoro-3-hydroxy-3-methylbutyl) nicotinamide] | 27 nM | 1 nM |  |  |  |
| CC(C)(O)[C@H](F)CNC(=O)c1cnc(-c2ccc3cc(C#N)cnn23)cc1NC1CC2(CC(O)C2)C1 (stereo partly drawn) [Example 511, (R)-6-(3-cyano-pyrrolo[1,2-b]pyridazin-7-yl)-N-(2-fluoro-3-hydroxy-3-methylbutyl)-4-((6-hydroxyspiro[3.3]heptan-2-yl)amino) nicotinamide] | 26 nM |  | < 1 nM |  |  |
| N#Cc1cnn2c(-c3cc(N[C@H]4CCC[C@@H](O)C4)c(C(=O)NCC4(C#N)CC4)cn3)ccc2c1 [Example 428, N-((1-cyanocyclopropyl)methyl)-6-(3-cyano-pyrrolo[1,2-b]pyridazin-7-yl)-4-(((1S,3R)-3-hydroxycyclohexyl)amino)nicotinamide] | 4270 nM |  | 63 nM |  |  |
| CNC(=O)c1ccc(Nc2cc(-c3ccc4cc(C#N)cnn34)ncc2C(=O)NC[C@@H](F)C(C)(C)O)cc1 [Example 350, (R)-6-(3-cyanopyrrolo[1,2-b]pyridazin-7-yl)-N-(2-fluoro-3-hydroxy-3-methylbutyl)-4-((4-(methylcarbamoyl)phenyl)amino)nicotinamide] | 12 nM | < 1 nM |  |  |  |
| CC(C)Nc1cc(-c2ccc3cc(C#N)cnn23)ncc1C(=O)N[C@H]1CC[C@H](O)C1 [Example 189, 6-(3-cyanopyrrolo[1,2-b]pyridazin-7-yl)-N-((1S,3S)-3-hydroxycyclopentyl)-4-(isopropylamino) nicotinamide] | 136 nM | 6 nM |  |  |  |
